Laboratory results as given in article PMC2481421, “Gene expression response in target organ and whole blood varies as a function of target organ injury phenotype” (Genome Biology, 2008).
Where “and” joins values, the source holds several entries; their conditions need not be identical. Equal entries are not always repeated. Entries after “also recorded” stand apart in the source; their conditions may differ.

Key:
[1] = In-life observations: body weight, gross findings before and at necropsy; format: in vivo, Male Fischer 344/N rats; conditions: individual animals
Experimental: Doses were determined with pilot experiments. […] Serum was collected for clinical chemistry.

liver = assay: Liver histopathology (H&E sections of left liver lobe, severity graded) after a single dose; conditions: for Primary site of livery injury: rat, single administration
Experimental: The animals were acclimated for 14 days and observed for absence of disease.
Doses were determined with pilot experiments. For each chemical, doses that elicited a sub-toxic ('low'), a moderately toxic ('medium') or a overtly toxic ('high') response 24 hours after treatment were selected. […] For each compound, control animal groups were treated with vehicle alone. All animals were fasted for 12-18 hours prior to exposure. Groups of four to six animals were dosed between 8:30 and 9:30 a.m.; thereafter, feed was provided ad libitum. After 6, 24 or 48 hours of treatment, animals were anesthetized by isoflurane anesthesia. Whole blood was collected via retro-orbital plexus for hematology and gene expression analysis. Serum was collected for clinical chemistry. The animals were euthanized while under anesthesia by cervical dislocation and necropsied within 4 minutes of sacrifice. The left liver lobe was promptly removed and two defined cross sections were placed in 10% neutral buffered formalin for subsequent histopathology.
The cross sections that were fixed by immersion in 10% neutral buffered formalin (see 'In-life studies' section above) were transferred to histology grade alcohol for 18-24 hours after necropsy. Tissues were then processed, embedded in paraffin, sectioned at 5 microns, and stained with hematoxylin and eosin. A pathologist completed the initial microscopic evaluation of each liver sample for a given compound. […] An independent pathology quality assessment review was performed by a second pathologist on the initial histopathological findings.

[2] = 15 mg/kg, gavage, corn oil, 6 hours
[3] = 15 mg/kg, gavage, corn oil, 24 hours, listed as 1, 4-Dichlorobenzene
[4] = 15 mg/kg, gavage, corn oil, 48 hours
[5] = 150 mg/kg, gavage, corn oil, 6 hours
[6] = 150 mg/kg, gavage, corn oil, 24 hours, listed as 1, 4-Dichlorobenzene
[7] = 150 mg/kg, gavage, corn oil, 48 hours
[8] = 1500 mg/kg, gavage, corn oil, 24 hours, listed as 1, 4-Dichlorobenzene
[9] = 1500 mg/kg, gavage, corn oil, 48 hours
[10] = 25 mg/kg, gavage, corn oil, 6 hours
[11] = 25 mg/kg, gavage, corn oil, 24 hours
[12] = 25 mg/kg, gavage, corn oil, 48 hours
[13] = 75 mg/kg, Gavage, Corn Oil, 48 hours
[14] = 75 mg/kg, gavage, corn oil, 6 hours
[15] = 75 mg/kg, gavage, corn oil, 24 hours
[16] = 250 mg/kg, Gavage, Corn Oil, 48 hours
[17] = 250 mg/kg, gavage, corn oil, 6 hours
[18] = 250 mg/kg, gavage, corn oil, 24 hours
[19] = medium dose, 6 hour, six animals

Compound: Clc1ccc(Cl)cc1 [1,4-Dichlorobenzene]
- Clin/Ob Prior to Necropsy [1, 2]: Normal
- Gross Findings [1, 2]: No Gross Findings
- Clin/Ob Prior to Necropsy ([1]; 15 mg/kg, gavage, corn oil, 24 hours): Normal
- Final Body Wt. [1, 3]: 232.30 g and 225.40 g and 254.10 g and 277.50 g
- Gross Findings [1, 3]: Liver median lobe with dark area 3x5 mm; also recorded: No Gross Findings
- Clin/Ob Prior to Necropsy [1, 4]: Normal
- Gross Findings [1, 4]: No Gross Findings
- Final Body Wt. ([1]; 15 mg/kg, gavage, corn oil, 48 hours, listed as 1, 4-Dichlorobenzene): 239.30 g and 240.50 g and 258.30 g and 262.70 g
- Clin/Ob Prior to Necropsy [1, 5]: Normal
- Gross Findings [1, 5]: No Gross Findings
- Clin/Ob Prior to Necropsy ([1]; 150 mg/kg, gavage, corn oil, 24 hours): Normal
- Final Body Wt. [1, 6]: 243.60 g and 238.40 g and 164.30 g and 262.50 g
- Gross Findings [1, 6]: Liver median lobe mottled; Bladder calculi; also recorded: No Gross Findings
- Clin/Ob Prior to Necropsy [1, 7]: Normal
- Gross Findings [1, 7]: No Gross Findings
- Final Body Wt. ([1]; 150 mg/kg, gavage, corn oil, 48 hours, listed as 1, 4-Dichlorobenzene): 234.10 g and 237.30 g and 264.20 g and 251.10 g
- Clin/Ob Prior to Necropsy ([1]; 1500 mg/kg, gavage, corn oil, 6 hours): Normal
- Gross Findings ([1]; 1500 mg/kg, gavage, corn oil, 6 hours, listed as 1, 4-Dichlorobenzene): Liver left and median lobes mottled; also recorded: No Gross Findings
- Clin/Ob Prior to Necropsy ([1]; 1500 mg/kg, gavage, corn oil, 24 hours): Normal
- Final Body Wt. [1, 8]: 242.10 g and 248.00 g and 261.40 g and 259.70 g
- Gross Findings [1, 8]: No Gross Findings; also recorded: Liver median lobe mottled on dorsal side
- Clin/Ob Prior to Necropsy [1, 9]: Normal
- Gross Findings [1, 9]: No Gross Findings
- Final Body Wt. ([1]; 1500 mg/kg, gavage, corn oil, 48 hours, listed as 1, 4-Dichlorobenzene): 237.50 g and 238.20 g and 259.90 g and 253.70 g

Compound: Brc1ccccc1 [Bromobenzene]
- Primary site of livery injury (liver): Centrilobular
- Clin/Ob Prior to Necropsy [1, 10]: Normal
- Gross Findings [1, 10]: No Gross Findings
- Clin/Ob Prior to Necropsy [1, 11]: Normal
- Final Body Wt. [1, 11]: 249.50 g and 261.40 g and 229.00 g and 231.60 g
- Gross Findings [1, 11]: No Gross Findings
- Clin/Ob Prior to Necropsy [1, 12]: Normal
- Final Body Wt. [1, 12]: 244.40 g and 235.00 g and 246.60 g and 231.60 g
- Gross Findings [1, 12]: No Gross Findings
- Clin/Ob Prior to Necropsy [1, 13]: Normal
- Final Body Wt. [1, 13]: 236.60 g and 225.70 g and 236.40 g and 237.30 g
- Gross Findings [1, 13]: No Gross Findings
- Clin/Ob Prior to Necropsy [1, 14]: Normal
- Gross Findings [1, 14]: No Gross Findings; also recorded: Liver left lobe mottled
- Clin/Ob Prior to Necropsy [1, 15]: Normal
- Final Body Wt. [1, 15]: 242.50 g and 258.00 g and 249.00 g and 228.00 g
- Gross Findings [1, 15]: No Gross Findings
- Clin/Ob Prior to Necropsy [1, 16]: Normal
- Final Body Wt. [1, 16]: 203.70 g and 220.50 g and 212.60 g and 210.30 g
- Gross Findings [1, 16]: Liver left lobe firm with mottled edges, median lobe firm with mottled edges; also recorded: Liver left lobe mild roughening of surface, median lobe mild roughening of surface
- Clin/Ob Prior to Necropsy [1, 17]: Normal
- Gross Findings [1, 17]: No Gross Findings; also recorded: Liver left lobe and median lobe mottled
- Clin/Ob Prior to Necropsy [1, 18]: Ungroomed Appearance
- Final Body Wt. [1, 18]: 214.60 g and 204.50 g and 218.70 g and 200.70 g
- Gross Findings [1, 18]: Liver left lobe dark, mottled, and firm (anterior end darker), median lobe dark, mottled, and firm; also recorded: Liver left lobe mottled with dark edges, median lobe dark and mottled (left side darker)

Compound: c1cc[n+]2c(c1)-c1cccc[n+]1CC2 [Diquat Dibromide]
- Clin/Ob Prior to Necropsy ([1]; 5 mg/kg, I.P., PBS, 6 hours): normal
- Gross Findings ([1]; 5 mg/kg, I.P., PBS, 6 hours): No Gross Findings; also recorded: Liver: median lobe dark area ventral surface 3x5mm; also recorded: Liver: left lobe accentuated centrilobular pattern
- Clin/Ob Prior to Necropsy ([1]; 5 mg/kg, I.P., PBS, 24 hours): normal
- Final Body Wt. ([1]; 5 mg/kg, I.P., PBS, 24 hours): 211.10 g and 208.50 g and 245.30 g and 233.00 g and 258.10 g and 250.90 g
- Gross Findings ([1]; 5 mg/kg, I.P., PBS, 24 hours): No Gross Findings; also recorded: Liver: median lobe HDN; also recorded: Liver: left lobe mottled, median lobe mottled
- Clin/Ob Prior to Necropsy ([1]; 5 mg/kg, I.P., PBS, 48 hours): normal; also recorded: Piloerection
- Final Body Wt. ([1]; 5 mg/kg, I.P., PBS, 48 hours): 224.20 g and 218.20 g and 231.10 g and 225.90 g and 257.30 g and 249.20 g
- Gross Findings ([1]; 5 mg/kg, I.P., PBS, 48 hours): No Gross Findings; also recorded: Liver: left lobe mottled, median lobe mottled
- Clin/Ob Prior to Necropsy ([1]; 10 mg/kg, I.P., PBS, 6 hours): normal
- Gross Findings ([1]; 10 mg/kg, I.P., PBS, 6 hours): Liver: left lobe mottled, median lobe pale patcity area 3x5mm; also recorded: Liver: left lobe dark focus 1x1mm, median lobe mottled; also recorded: No Gross Findings
- Clin/Ob Prior to Necropsy ([1]; 10 mg/kg, I.P., PBS, 24 hours): normal
- Final Body Wt. ([1]; 10 mg/kg, I.P., PBS, 24 hours): 206.10 g and 210.20 g and 242.10 g and 224.30 g and 236.70 g and 244.40 g
- Gross Findings ([1]; 10 mg/kg, I.P., PBS, 24 hours): No Gross Findings; also recorded: Liver: left lobe mottled, median lobe mottled; also recorded: Liver: median lobe dorsal surface mottled; also recorded: Liver: median lobe HDN
- Clin/Ob Prior to Necropsy ([1]; 10 mg/kg, I.P., PBS, 48 hours): normal
- Final Body Wt. ([1]; 10 mg/kg, I.P., PBS, 48 hours): 220.20 g and 230.20 g and 218.20 g and 217.30 g and 243.20 g and 249.30 g
- Gross Findings ([1]; 10 mg/kg, I.P., PBS, 48 hours): No Gross Findings; also recorded: Liver: left lobe small, median lobe small; also recorded: Liver: left lobe mottled, median lobe mottled
- Clin/Ob Prior to Necropsy ([1]; 20 mg/kg, I.P., PBS, 6 hours): normal
- Gross Findings ([1]; 20 mg/kg, I.P., PBS, 6 hours): Liver: left lobe mottled dark edge, median lobe mottled; also recorded: No Gross Findings
- Clin/Ob Prior to Necropsy ([1]; 20 mg/kg, I.P., PBS, 24 hours): normal; also recorded: Piloerection
- Final Body Wt. ([1]; 20 mg/kg, I.P., PBS, 24 hours): 207.30 g and 222.70 g and 236.30 g and 245.70 g and 242.80 g and 235.30 g
- Gross Findings ([1]; 20 mg/kg, I.P., PBS, 24 hours): Liver: left lobe mottled/pale, median lobe mottled/pale; also recorded: No Gross Findings; also recorded: Liver: median lobe dorsal surface mottled; also recorded: Liver: left lobe mottled/pale/slightly enlarged, median lobe mottled/pale/ slightly enlarged
- Clin/Ob Prior to Necropsy ([1]; 20 mg/kg, I.P., PBS, 48 hours): normal; also recorded: Piloerection
- Final Body Wt. ([1]; 20 mg/kg, I.P., PBS, 48 hours): 227.20 g and 217.30 g and 211.20 g and 231.70 g and 252.00 g and 265.20 g
- Gross Findings ([1]; 20 mg/kg, I.P., PBS, 48 hours): No Gross Findings; also recorded: Liver: left lobe mottled/pale, median lobe pale; also recorded: Liver: left lobe mottled/pale, median lobe mottled/pale
- Clin/Ob Prior to Necropsy ([1]; 25 mg/kg, I.P., PBS, 6 hours): normal; also recorded: Piloerection; also recorded: Comatose
- Gross Findings ([1]; 25 mg/kg, I.P., PBS, 6 hours): No Gross Findings; also recorded: Liver: left lobe mottled dark, median lobe mottled dark
- Clin/Ob Prior to Necropsy ([1]; 25 mg/kg, I.P., PBS, 24 hours): Piloerection; also recorded: normal; also recorded: Ungroomed Appearance
- Final Body Wt. ([1]; 25 mg/kg, I.P., PBS, 24 hours): 240.50 g and 211.50 g and 223.20 g and 243.30 g and 234.60 g and 233.90 g
- Gross Findings ([1]; 25 mg/kg, I.P., PBS, 24 hours): No Gross Findings; also recorded: Liver: left lobe pale, one focal tan area on dorsal side 3x3mm, tan focal area on ventral side 7x5mm; median lobe pale and mottled; also recorded: Liver: left lobe dark edge; also recorded: Liver: left lobe mottled/pale/ rough surface minimal, median lobe mottled/pale/ rough surface minimal
- Clin/Ob Prior to Necropsy ([1]; 25 mg/kg, I.P., PBS, 48 hours): normal; also recorded: Ungroomed Appearance; also recorded: Piloerection
- Final Body Wt. ([1]; 25 mg/kg, I.P., PBS, 48 hours): 205.20 g and 208.20 g and 226.90 g and 212.10 g and 236.10 g and 244.10 g
- Gross Findings ([1]; 25 mg/kg, I.P., PBS, 48 hours): Liver: left lobe pale/small, median lobe pale/small; also recorded: Liver: left lobe pale/mottled/ rough surface slight, median lobe pale/mottled/ rough surface slight

Compound: c1cc[n+]2c(c1)-c1cccc[n+]1CC2 [Diquat]
- extent of hepatocellular necrosis, amount of inflammatory cell infiltrates and/or indications of hepatocellular repair (mitosis) across animals (liver; high dose, 48 hour): variability
- animals with minimal levels of hepatocellular necrosis (liver; [19]): one
- animals with no apparent histopathological observations (liver; [19]): Three of the six
- animals with noted levels of glycogen depletion (liver; [19]): two
- Primary site of livery injury (liver): Mid-zonal to centrilobular
